Measurements reported in patent US11730178B2, “Extraction method” (THE PRODUCT MAKERS (AUSTRALIA) PTY LTD, priority 2012, dated 2023).

Key:
[1] = target: yeast (Saccharomyces cerevisiae) α-glucosidase; experiment: α-Glucosidase inhibition (hydrolysis of 4-methylumbelliferyl-α-D-glucopyranoside, fluorescence); assay type: biochemical; conditions: pH 5.5, 20 minutes at 37° C.
Method: As known in the art, α-glucosidase inhibitory activity can be measured as the ability of test samples to prevent the hydrolysis of 4-methylumbelliferyl-α-D-glucopyranosidase by yeast (Saccharomyces cerevisiae) α-glucosidase using known techniques. As will be understood by the skilled person, acarbose can be included in the assay as a positive control.
α-Glucosidase inhibitory activity is measured as the ability of test samples to prevent the hydrolysis of 4-methylumbelliferyl-α-D-glucopyranosidase by yeast (Saccharomyces cerevisiae) α-glucosidase.
Each sample (0.5 mL) was weighed and freeze-dried to determine its % dry matter. The samples were then resuspended in either dimethyl sulfoxide (DMSO) or DMSO:water (1:1) to a concentration of 15 mg/mL, after which the samples were serially diluted.
The substrate, 4-methylumbelliferyl-α-D-glucopyranoside, and enzyme, yeast α-glucosidase, were prepared in the assay buffer, sodium acetate buffer (pH 5.5). The substrate (final concentration 83 μM, 45 μL) was added to 96-well plates containing 45 μL enzyme (final concentration 1.7 mU/mL) and 10 μL of sample. […] The reaction was stopped by the addition of 100 mM sodium glycine buffer (100 μL, pH 10.6), the plate was shaken for a further 30 seconds, and the fluorescence intensity was measured at λex 355 nm and λem 460 nm. […]

[2] = tested on: PEG2 production from 3T3 cells; experiment: PEG2 (prostaglandin E2) inhibition in 3T3 cells stimulated with calcium ionophore, EIA kit; assay type: cell-based; conditions: Mus musculus, NIH3T3, at 0.488 μg/mL, read-out: highest PEG2 inhibition observed
Excerpt: An extract according to the invention can also be tested for anti-inflammatory activity. By way of a non-limiting example, the extracts may be tested for prostaglandin E2 (PGE2) activity. As known in the art, PGE2 inhibitory activity can be measured by the ability of test samples to inhibit PGE2 production in 3T3 cells when stimulated with calcium ionophore. As understood in the art, aspirin and ibuprofen may be included in the assay as a positive control. The in vitro production of PEG2 from 3T3 cells was measured using the Cayman Chemical Prostaglandin E2 monoclonal EIA (Enzyme Immuno Assay) kit. The cells were exposed to samples 3 and 6 and stimulated with calcium ionophore. The cell supernatants were then assayed for PEG2 production. The cell cytotoxicity of the samples was tested against 3T3 cells to confirm that the observed PEG2 inhibition was not due to cell cytotoxicity. Aspirin and ibuprofen were used as positive controls.

Row | Molecule | α-glucosidase inhibitory activity IC50 [1] | inhibition at 0.488 µg/mL [2]
1 | fucoidan | 0.17 µg/mL | 
2 | CC(C)Cc1ccc(C(C)C(=O)O)cc1 (centres unmarked) [ibuprofen] |  | 42.1%
